Data: patent US20250325467A1, “COMPOSITIONS FOR PREVENTING OR TREATING SKIN AGING” (ESTETRA SRL, priority 2021, published 2025)
Entries after “also recorded” stand apart in the source; their conditions may differ.

What was measured:
[1] = tested on: mouse lymphoma cell line L5178Y TK^+/−; experiment: Generation of reactive oxygen species (ROS) in mouse lymphoma cells; format: cell-based; settings: up to 100 μM; 3 h exposure; vs vehicle control
Protocol: The objective of the study was to investigate the generation of reactive oxygen species (ROS) induced by the test item, estetrol (E4), in a mouse lymphoma cell line L5178Y TK^+/−.
L5178Y TK^+/− cells in logarithmic phase of growth were plated in black 96 well cell culture plates at 1×10^4 cells in 90 μL of cell culture media. Controls and test item in triplicate were applied to the cells as a 10× concentrate in 10 μL of a 10% ethanol solution in PBS (final concentration of ethanol on plate was 1%). Cells were incubated for 3 hours at 37° C., 5% CO2, and the generation of ROS was evaluated by fluorescence with a ROS reagent: the ROS reagent was freshly prepared by dissolving one ampoule of reagent (50 μg) in 70 μL DMSO and further diluting this with 2.1 mL of pre-warmed PBS. 10 μL of ROS reagent was added to each well and the plate were shaken for 30 seconds in the dark. The plates were incubated approximately at 37° C., 5% CO2 for 1 h 30 min and fluorescence was read on a plate scanner with excitation at 492 nm and emission at 520 nm.

IL-6 release from NHEKs = experiment: PMA/A23187-induced IL-6 release from NHEKs (ELISA, normalized to viability); format: cell-based, human; settings: E2, 3 concentrations assessed (not specified); 24 h
Protocol: The Normal Human foreskin-derived Epidermal Keratinocytes (NHEKs, Lonza, 00192906), isolated from foreskin of 3 Caucasian donors, were grown in Epilife medium (Fisher Scientific, M-EPI-500-A) supplemented with Human Keratinocyte Growth Supplement (HKGS, Fisher Scientific, S-001-5) and antibiotics (Gentamycin, Fisher Scientific, 15710-049). The cells were maintained in a humidified incubator at 37° C. with a 5% CO2 atmosphere.
E4 and E2, provided as powder, were dissolved in 100% ethanol at 0.1M. They were then further diluted in ethanol and in culture medium to reach the appropriate concentrations. […] Practically, stock solutions 1000-fold concentrated were prepared in 100% ethanol, aliquoted and stored at −20° C. until cell application.
In order to induce the release of IL-6, NHEKs were exposed for 24 h with phorbol myristate acetate (PMA) at 10 ng/mL, in combination with calcium ionophore A23187 (Sigma Aldrich, C5722) at 2 μM. The treatments with the test or reference items were performed simultaneously with the inflammatory challenge. […] E4 was applied at 10^−4, 10^−5, 10^−6, 10^−7 and 10^−8 M and E2 at 10^−5, 10^−6, 10^−7, 10^−8 and 10^−9 M EtOH at 0.1% was tested as solvent control. Dexamethasone at 10 μM was used as anti-inflammatory reference. At the end of 24 h treatment, supernatants were harvested and stored at −20° C., and cell viability assay was assessed by MTS (see section 5). The kinetics of the treatments is outlined in FIG. 12. All the treatments were performed in triplicates (n=3).
The quantification of the release of inflammatory markers was performed using specific ELISA kits, based on standard curves, according to supplier's specifications. The results were then normalized to the corresponding cell viability (obtained by MTS assay).
The supplier's reference of the kits used for IL-6 quantification is as follows: IL-6, BioTechne, D6050.
At the end of the treatments and culture media collection, the viability of the cells was evaluated using the MTS (3-(4,5-dimethythiazol-2-yl)-5-(3-carboxy-methoxyphenyl)-2-(4-sulfophenyl)-2H-tetrazolium) assay. The effects of the treatments were compared to the untreated control condition and to the solvent control (EtOH 0.1%). The viability data were used in order to normalize the quantities of released inflammatory mediators.
NHEKs were treated as described in the methodology section. The quantification of IL-6 by ELISA was performed from the collected supernatants, following the instructions of the kit provider. Only 3 concentrations of the test items (chosen in accordance with the Sponsor following the results of the viability assay) were assessed in the ELISA.

[2] = tested on: Normal Human Dermal Fibroblasts (NHDFs); experiment: Colonization of a standard acellular area (IBIDI chamber gap closure) by fibroblasts; format: cell-based; settings: for NHDF Proliferation & Migration (colonization of the acellular area): absence of MMC, 6 h and 24 h; for colonized area, NHDF, positive reference: 10 ng/ml
Protocol: (§1) The study consists in an in vitro assay aiming to evaluate the properties of E4 and E2 at 4 concentrations each on keratinocytes and fibroblasts. In this assay, the measurement of the colonization of a standard acellular surface generated from a confluent monolayer of cells using a dedicated culture device (IBIDI chamber) is performed. The assay is performed in absence and in presence of a proliferation inhibitor to focus on cell proliferation and migration or on migration only, respectively.
Normal Human forskin-derived Dermal Fibroblats (NHDFs, ATCC) cells were grown in phenol-free Dulbecco's Modified Eagle Medium (DMEM, ThermoFisher Scientific) supplemented with 10% of Foetal Bovine Serum (FBS, ThermoFisher Scientific), L-glutamine and antibiotics. The cells were maintained in a humidified incubator at 37° C. with a 5% CO2 atmosphere.
(§2) Cells were plated in 2-well silicone inserts with a defined cell free gap (IBIDI chambers; IBIDI GmbH, 80209) that was previously inserted on 12-well culture plates. This culture device allows to create a standardized 500 μm±100 μm cell free gap for monitoring cell colonization. 24 h after seeding, when the culture reached high confluency, cells in the insert were treated, or not, with mitomycin C (MMC) at 10 μg/ml during 2 h. After these 2 hours, the insert was removed, and cells were treated with E2 or E4 in presence or not of MMC for additional 2 h. Then, if appropriate, the culture medium was removed and cells were treated with E2 or E4 for 22 h, in absence of MMC.
(§3) For the assay, keratinocytes were plated in Epilife medium without HKGS and all the treatments were performed in this medium. Fibroblasts were plated in DMEM medium containing only 2,5% of FBS and the treatments were performed in absence of FBS.
(§4) E2 and E4 were applied at 4 concentrations each (10^−7M, 10^−8M, 10^−9M, 10^−10M). In parallel, cells were treated with a positive control (HKGS 1% for human keratinocytes and PDGF-BB at 10 ng/ml for human fibroblasts).
(§5) To monitor cell colonization and to evaluate the gap closure rate, pictures of the gap were taken after different times: at time 0 h, corresponding to the beginning of the treatment with E2 or E4 and to the removal of the culture insert, at time 6 h and at time 24 h (corresponding to the end of the treatments with E2 or E4). Pictures were taken with a microscope Zeiss (Axiover 25-10× objective) and with a camera Invenio2EIII (DeltaPix—Lux-Optic). The colonized areas were quantified from the pictures by the use of the WimAsis platform—WimScratch software. For each insert, 3 pictures were taken at each time. As each condition was performed in triplicates, it means a total of 9 pictures per condition and per time point of acquisition

[3] = tested on: Normal Human Epidermal Keratinocytes (NHEKs); experiment: Colonization of a standard acellular area (IBIDI chamber gap closure) by keratinocytes; format: cell-based; settings: for colonization of the cell-free area by NHEK, overall: all four concentrations (10^−7M to 10^−10M), vs ethanol control
Protocol: as §1
The study was performed using cultures of Normal Human foreskin-derived Epidermal Keratinocytes (NHEKs, Lonza). The cells were grown in serum free Epilife medium (ThermoFisher Scientific) supplemented with Human Keratinocyte Growth Supplement (HKGS, ThermoFisher Scientific) and antibiotics. The cells were maintained in a humidified incubator at 37° C. with a 5% CO2 atmosphere.
as §2, §3, §4, §5

For `OO` [hydrogen peroxide, reference compound], the “levels of ROS (controls)” value [1] was “tendency to increase the levels of ROS”.

With `C[C@]12CC[C@@H]3c4ccc(O)cc4CC[C@H]3[C@@H]1CC[C@@H]2O` [E2, 17β-estradiol, reference compound] the “PMA/A23187-induced IL-6 release” value (IL-6 release from NHEKs) was “unaffected; also recorded: not observed”, the “NHDF Proliferation & Migration (colonization of the acellular area)” value (shortened to “NHDF Proliferation & Migration”) ([2]; 10^−7M, vs ethanol control) was “increased the colonization of the acellular area; also recorded: significant activity” and the “NHDF Proliferation & Migration” value ([2]; 10^−8M, vs ethanol control) was “increased the colonization of the acellular area; also recorded: significant activity”. For the same molecule, the “NHDF Proliferation & Migration” value ([2]; 10^−10M, vs ethanol control) was “increased the colonization of the acellular area; also recorded: significant activity”, the “colonization of the cell-free gap by NHDF, overall” value ([2]; presence of MMC, all four concentrations (10^−7M to 10^−10M), vs ethanol control) was “not able to significantly increase the colonization of the cell-free gap” and the “effect on the gap closure by NHEK” value ([3]; 10^−7M to 10^−9 M, after 24 h of treatment, significant only for 10^−8M) was “inhibitor effect on the gap closure”. For the same molecule, the “colonization of the cell-free area by NHEK, overall” value ([3]; absence of MMC) was “not able to significantly increase the colonization of the cell-free area; also recorded: no significant effect on keratinocyte proliferation or migration” and the “colonization of the cell-free area by NHEK, overall” value ([3]; presence of MMC) was “not able to significantly increase the colonization of the cell-free area; also recorded: no significant effect on keratinocyte proliferation or migration”.

B1: PDGF-BB: positive control at 10 ng/ml for human fibroblasts (protein, UniProt P01127 82-190, looked up)
Platelet-derived growth …: SLGSLTIAEPAMIAECKTRTEVFEISRRLIDRTNANFLVWPPCVEVQRCSGCCNNRNVQCRPTQVQLRPVQVRKIEIVRKKPIFKKATVTLEDHLACKCETVAAARPVT
In the case of B1, the “colonized area, NHDF, positive reference” value ([2]; in absence of MMC) is reported as “significantly increases the colonized area” and the “colonized area, NHDF, positive reference” value ([2]; in presence of MMC) is reported as “significantly increases the colonized area”.
